Test results: publication PMC11292009, “Mapping protein binding sites by photoreactive fragment pharmacophores” (Communications Chemistry, 2024)
“And” between values parts separate entries of the source, which are not always exact repeats. Equal values may be shown once.

Assays:
Assay type in all cases: binding
[1] = tested on: carbonic anhydrase II (CA); test: Intact protein MS photoaffinity labeling screen, carbonic anhydrase; details: intact protein MS after 10 min irradiation
In short: (§1)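 Intact-protein mass spectrometry detected covalent adduct mass shifts, giving percent labeling per fragment. Beforehand, single fragments per well were pre-incubated 15 min with each benchmark protein ahead of photoactivation.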

KRas^G12D = tested on: T1, KRas^G12D; test: Intact MS photoaffinity labeling screen, KRas G12D (302 nm, LCMS-TOF); details: for MS labeling percentage, KRas: KRas G12D, 302 nm 10 min; for KRAS-G12D: experimental hit status flag (0/1); for experimental hit status KRAS-G12D: 0/1 flag
T1 construct: purchased GSK/GenScript
In short: (§2)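 Labeling detected as mass additions in deconvoluted intact-protein LCMS-TOF spectra. Protein at 1 μM in PBS was first mixed with one fragment per well on ice for 15 min, followed by 10 min UV exposure at 302 nm.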

myoglobin (Myo) = test: Intact protein MS photoaffinity labeling screen, myoglobin; details: intact protein MS after 10 min irradiation
In short: as §1

lysozyme (Lyo) = test: Intact protein MS photoaffinity labeling screen, lysozyme; details: intact protein MS after 10 min irradiation
In short: as §1

BRD4-BD1 = tested on: T2, BRD4-BD1; test: Intact MS photoaffinity labeling screen, BRD4-BD1 (302 nm, LCMS-TOF); details: for MS labeling percentage, BRD4: BRD4-BD1, 302 nm 10 min; for BRD4-BD1: experimental hit status flag (0/1); for experimental hit status BRD4-BD1: 0/1 flag
T2 construct: screened the PhP library against the first bromodomain of BRD4 (BRD4-BD1); purchased GSK/GenScript
In short: as §2

[2] = tested on: CA, Lyo, Myo, BRD4-BD1, KRas G12D, STAT5B-NTD; test: Intact MS labeling compared over all protein targets; details: for Labeling of the other protein targets (vs. preferred target): each of the other targets
Description: Using a plate-based format with one fragment per well, each fragment was incubated with the target proteins for 15 min to allow for the formation of non-covalent interactions. The plate was then irradiated at 302 or 365 nm for 10 min to enable the bound fragments to crosslink to the protein[26]. Finally, the results were directly analyzed from the plate using intact protein mass spectrometry by observing the mass additions that correspond to successful labeling (Fig. 2c, for labeling % values see Supplementary data). The library was first characterized against three benchmark proteins like carbonic anhydrase (CA), lysozyme (Lyo), and myoglobin (Myo).
The PhP library was screened against BRD4-BD1 and KRas^G12D as follows. Using a Labcyte Echo® 555 Liquid Handler, 150 nL of fragment solution (20 mM) was transferred into a Greiner 384 low-volume plate (white) to prepare the probe plate. The probe plate was placed on ice. 15 μL of protein stock solution (1 μM BRD4-BD1 (GSK/GenScript) or KRas^G12D (GSK/GenScript) in PBS buffer) was dispensed into wells containing fragments. The plate was left on ice for 15 min for incubation, then irradiated at 302 nm for 10 min, and centrifuged (1000 rpm, 1 min) to remove any bubbles. The plate was then analyzed by LCMS-TOF mass spectrometry (Agilent 1200 series liquid chromatography with Agilent Bio-HPLC PLRP-S (1000 Å, 5 µm × 50 mm × 1.0 mm, PL1312-1502) reverse phase HPLC column at 70 °C equipped with an Agilent G6224 time-of-flight (ToF), see Supplementary Note 2 for the full protocols). The deconvoluted spectra were analyzed using R Studio software.
During the analysis, the column temperature was maintained at a constant 60 °C, and a sample volume of 3 µL was injected for each analysis. Data acquisition was conducted in positive ion mode within the m/z 100–2000 (mass-to-charge ratio) range. For the full protocol and spectra of the hits, see Supplementary Note 2.

STAT5B-NTD [3] = tested on: T3, STAT5B-NTD; test: Intact MS labeling screen, STAT5B-NTD conjugated with photocatalyst Ir-G2-PEG3-COOH (450 nm); details: 450 nm 10 min;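 note: 0.14 µL of 100 mM DMSO fragment stock added to the conjugate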
T3 construct: His-SUMO (N, cleaved yes); made in house; host or cells: E. coli BL21 RILP
In short: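 Ir-G2-PEG3-COOH photocatalyst (10 eq) activated 30 min with EDC/NHS/BOP, then conjugated to STAT5B-NTD (7 µM) overnight at RT or 1 h at 37 °C in dark. PhP added, 1 h dark, then 450 nm irradiation 10 min at 4 °C; labeling read by intact LC-MS, positive ion mode, m/z 100–2000.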

STAT5B-NTD [4] = tested on: T3, STAT5B-NTD; test: Intact MS photoaffinity labeling screen, STAT5B-NTD (365 nm, UHPLC-MS); details: for MS labeling percentage, STAT5B: STAT5B-NTD, 365 nm 10 min, no photocatalyst; for STAT5B-NTD: experimental hit status flag (0/1); for experimental hit status STAT5B-NTD: 0/1 flag;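 for MS labeling percentage, STAT5B: 0.17 µL of 100 mM DMSO fragment stock added to the protein sample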
In short: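 Intact-protein labeling detected by UHPLC-MS in positive ion mode over m/z 100–2000. Samples were first photo-crosslinked at 365 nm for 10 min at 4 °C. Before irradiation, 7 µM STAT5B in PBS pH 7.4 was pre-incubated with probe for 1 h in the dark at room temperature.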

[5] = PhP library sheet "PhP", binary flag printed as 0 or 1, key not given
[6] = hit status flag, 1 = hit, 0 = no hit

MS labeling percentage, CA [1] [%]	Structure (SMILES)	MS labeling percentage, KRas (KRas^G12D) [%]	MS labeling percentage, Myo (myoglobin (Myo)) [%]	MS labeling percentage, Lyo (lysozyme (Lyo)) [%]	MS labeling percentage, BRD4 (BRD4-BD1) [%]	MS labeling percentage, STAT5B+photocat (STAT5B-NTD [3]) [%]	MS labeling percentage, STAT5B (STAT5B-NTD [4]) [%]	KRAS-G12D (experimental hit status) (KRas^G12D; [5])	BRD4-BD1 (experimental hit status) (BRD4-BD1; [5])	STAT5B-NTD (experimental hit status) (STAT5B-NTD [4]; [5])	further results
4.7	Cn1ccnc1CCNC(=O)CCC1(C)N=N1 [PhP003, Cn1ccnc1CCNC(=O)CCC2(C)N=N2]	0.8	0.2	0	1.1	0.8	0	–	–	–	KRAS-G12D (KRas^G12D): 0; BRD4-BD1 (BRD4-BD1): 0; Labeling of the other protein targets (vs. preferred target) [2]: > 1.1% and < 1.1%; STAT5B-NTD (STAT5B-NTD [4]): 0
0.9	CC1(CCC(=O)NC2CCN(c3ccc(F)cc3)CC2)N=N1 [PhP012, N1=NC1(C)CCC(=O)NC2CCN(CC2)c3ccc(F)cc3]	15.8	1	2.6	2.8	1	0	–	–	–	KRAS-G12D (KRas^G12D): 0; BRD4-BD1 (BRD4-BD1): 0; Labeling of the other protein targets (vs. preferred target) [2]: > 3% and < 3%; STAT5B-NTD (STAT5B-NTD [4]): 0
1.8	CC1(CCC(=O)NCCNS(=O)(=O)c2cccc([N+](=O)[O-])c2)N=N1 [PhP035, N1=NC1(C)CCC(=O)NCCNS(=O)(=O)c2cccc(c2)N(=O)=O]	2	1.3	0.3	3.7	9.7	0	–	–	–	experimental hit status KRAS-G12D (KRas^G12D): 0; experimental hit status BRD4-BD1 (BRD4-BD1): 0; Labeling efficiency over all protein targets (mean ± spread) ([2]; over all protein targets): 1.5 ± 1.2%; experimental hit status STAT5B-NTD (STAT5B-NTD [4]): 0
0.4	CC1(CCC(=O)Nc2ccc3oc(CN4CCCC4)nc3c2)N=N1 [PhP089, N1=NC1(C)CCC(=O)Nc2ccc3oc(CN4CCCC4)nc3c2]	0	0.1	0	0.2	1	1	0	0	0	–
0.5	Cc1nnc(C(C)NC(=O)CCC2(C)N=N2)[nH]1 (centres unmarked) [PhP090, Cc([nH]1)nnc1C(C)NC(=O)CCC2(C)N=N2]	0.1	0.2	0	0.3	0.5	0	0	0	0	–
0.7	Cn1cnc(CCNC(=O)CCC2(C)N=N2)c1 [PhP091, Cn1cnc(c1)CCNC(=O)CCC2(C)N=N2]	0.2	0.1	0	0.2	0.3	0	0	0	0	–
0.5	Cc1nnc(CNC(=O)CCC2(C)N=N2)[nH]1 [PhP093, Cc1nnc([nH]1)CNC(=O)CCC2(C)N=N2]	0.3	0.2	0	0.5	0.5	2	0	0	0	–
0.4	CC1(CCC(=O)NCCNC(=O)Nc2ccccc2)N=N1 [PhP094, N1=NC1(C)CCC(=O)NCCNC(=O)Nc2ccccc2]	0.5	0.1	0.9	1.1	2.1	1	0	0	0	–
0.2	Cn1nccc1C(=O)NCCNC(=O)CCC1(C)N=N1 [PhP095, Cn1nccc1C(=O)NCCNC(=O)CCC2(C)N=N2]	0.1	0.1	0	0.4	2.4	0	0	0	0	–
0	CC1(CCC(=O)NCCN2CCN(c3ccc(C(F)(F)F)cn3)CC2)N=N1 [PhP096, N1=NC1(C)CCC(=O)NCCN2CCN(CC2)c3ccc(cn3)C(F)(F)F]	0	0.1	0	0.3	1.1	0	0	0	0	–
0.1	CN(C)CC(=O)Nc1cccc(NC(=O)CCC2(C)N=N2)c1 [PhP100, CN(C)CC(=O)Nc1cccc(c1)NC(=O)CCC2(C)N=N2]	0	0.1	0	0.6	0	1	–	–	–	KRAS-G12D (experimental hit status) (KRas^G12D; [6]): 0; BRD4-BD1 (experimental hit status) (BRD4-BD1; [6]): 0; STAT5B-NTD (experimental hit status) (STAT5B-NTD [4]; [6]): 0

Structure (SMILES)	MS labeling percentage, CA [1] [%]	MS labeling percentage, KRas (KRas^G12D) [%]	MS labeling percentage, Myo (myoglobin (Myo)) [%]	MS labeling percentage, Lyo (lysozyme (Lyo)) [%]	MS labeling percentage, BRD4 (BRD4-BD1) [%]	MS labeling percentage, STAT5B+photocat (STAT5B-NTD [3]) [%]	MS labeling percentage, STAT5B (STAT5B-NTD [4]) [%]	KRAS-G12D (experimental hit status) (KRas^G12D; [5])	BRD4-BD1 (experimental hit status) (BRD4-BD1; [5])	STAT5B-NTD (experimental hit status) (STAT5B-NTD [4]; [5])	further results
CC(Cc1ccc(O)c(O)c1)NC(=O)CCC1(C)N=N1 (centres unmarked) [PhP001, N1=NC1(C)CCC(=O)NC(C)Cc2ccc(O)c(O)c2]	0	0	0.2	19.2	0.6	0	0	–	–	–	KRAS-G12D (KRas^G12D): 0; BRD4-BD1 (BRD4-BD1): 0; Labeling of the other protein targets (vs. preferred target) [2]: > 1% and < 1%; STAT5B-NTD (STAT5B-NTD [4]): 0
COc1ccc(S(=O)(=O)N2CCC(NC(=O)CCC3(C)N=N3)CC2)cc1 [PhP018, COc1ccc(cc1)S(=O)(=O)N2CCC(CC2)NC(=O)CCC3(C)N=N3]	17.7	42	19.9	3.7	65.5	0.7	0	–	–	–	experimental hit status KRAS-G12D (KRas^G12D): 0; experimental hit status BRD4-BD1 (BRD4-BD1): 0; Number of proteins labeled ([2]; of the six protein targets): four; experimental hit status STAT5B-NTD (STAT5B-NTD [4]): 0
COc1ccc(CCNC(=O)CCC2(C)N=N2)c2ccccc12 [PhP034, c1cccc(c12)c(OC)ccc2CCNC(=O)CCC3(C)N=N3]	4.7	67.8	1.7	1.7	10.6	1.1	0	–	–	–	experimental hit status KRAS-G12D (KRas^G12D): 0; experimental hit status BRD4-BD1 (BRD4-BD1): 0; Number of targets labeled in higher than 10% amount ([2]; of the six protein targets): two; experimental hit status STAT5B-NTD (STAT5B-NTD [4]): 0
